The target in this assay is T1, BtsS (YehU) (Escherichia coli, UniProt P0AD14).
T1 construct: full-length BtsS-6His in membrane vesicles
Briefly: DRaCALA with […]-pyruvate on BtsS membrane vesicles, competition with cold pyruvate. Format: binding.

T1 sequence (P0AD14 whole entry): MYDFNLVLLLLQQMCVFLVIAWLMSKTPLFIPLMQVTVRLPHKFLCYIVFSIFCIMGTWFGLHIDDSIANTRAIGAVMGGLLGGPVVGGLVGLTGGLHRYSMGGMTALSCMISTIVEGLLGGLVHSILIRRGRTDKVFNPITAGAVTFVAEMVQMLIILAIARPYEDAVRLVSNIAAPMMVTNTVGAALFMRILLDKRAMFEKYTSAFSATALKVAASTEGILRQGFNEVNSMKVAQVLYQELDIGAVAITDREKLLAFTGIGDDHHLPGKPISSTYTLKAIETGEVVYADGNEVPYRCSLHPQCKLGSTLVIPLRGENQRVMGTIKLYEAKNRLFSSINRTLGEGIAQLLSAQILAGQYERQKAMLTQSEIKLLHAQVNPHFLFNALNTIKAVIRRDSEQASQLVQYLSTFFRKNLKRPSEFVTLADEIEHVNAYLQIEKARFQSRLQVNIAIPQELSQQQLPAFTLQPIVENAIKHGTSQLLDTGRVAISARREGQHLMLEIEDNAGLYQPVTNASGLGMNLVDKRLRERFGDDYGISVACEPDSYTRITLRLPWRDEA

Turning to `CC(=O)C(=O)O` [pyruvate], the equilibrium dissociation constant (Kd) came out at 58.6 ± 8.8 µM.

Source of the values: paper PMC5431176, “Identification of a High-Affinity Pyruvate Receptor in Escherichia coli” (Scientific Reports, 2017).
